≈ marks a conversion by molar mass, not a printed value. Calls of active or inactive are those of the source. No cut-off for these calls is given here.
Assays:
[1] = test system: Escherichia coli; experiment: Antibacterial activity against NDM-1 positive Escherichia coli ZC-YN3 isolates assessed as doxycycline MIC incubated for 18 to 24 hrs by CLSI based broth microdilution method; type: functional; settings: time 18-24 hrs
[2] = test system: Escherichia coli; experiment: Antibacterial activity against NDM-1 positive MCR1 carrying Escherichia coli ZJ487 isolates assessed as meropenem MIC incubated for 18 to 24 hrs by CLSI based broth microdilution method; type: functional; settings: time 18-24 hrs
[3] = test system: Escherichia coli; experiment: Antibacterial activity against pET28a-NDM-1 positive Escherichia coli BL21(DE3) isolates assessed as cefotaxime MIC incubated for 18 to 24 hrs by CLSI based broth microdilution method; type: functional; settings: time 18-24 hrs
[4] = test system: Escherichia coli; experiment: Antibacterial activity against pET28a-NDM-1 positive Escherichia coli BL21(DE3) isolates assessed as spectinomycin MIC incubated for 18 to 24 hrs by CLSI based broth microdilution method; type: functional; settings: time 18-24 hrs
[5] = test system: Escherichia coli; experiment: Antibacterial activity against pET28a-NDM-1 positive Escherichia coli BL21(DE3) isolates assessed as streptomycin MIC incubated for 18 to 24 hrs by CLSI based broth microdilution method; type: functional; settings: time 18-24 hrs
[6] = test system: Escherichia coli; experiment: Antibacterial activity against pET28a-NDM-1 positive Escherichia coli BL21(DE3) isolates assessed as rifampicin MIC incubated for 18 to 24 hrs by CLSI based broth microdilution method; type: functional; settings: time 18-24 hrs
[7] = test system: Escherichia coli; experiment: Antibacterial activity against NDM-1 positive Escherichia coli ZC-YN3 isolates assessed as meropenem MIC incubated for 18 to 24 hrs by CLSI based broth microdilution method; type: functional; settings: time 18-24 hrs
[8] = test system: Escherichia coli; experiment: Antibacterial activity against NDM-1 positive Escherichia coli ZC-YN3 isolates assessed as tetracycline MIC incubated for 18 to 24 hrs by CLSI based broth microdilution method; type: functional; settings: time 18-24 hrs
[9] = test system: Escherichia coli; experiment: Antibacterial activity against NDM-1 positive Escherichia coli ZC-YN3 isolates assessed as ciprofloxacin MIC incubated for 18 to 24 hrs by CLSI based broth microdilution method; type: functional; settings: time 18-24 hrs
[10] = test system: Escherichia coli; experiment: Antibacterial activity against NDM-1 positive Escherichia coli ZC-YN3 isolates assessed as lincomycin MIC incubated for 18 to 24 hrs by CLSI based broth microdilution method; type: functional; settings: time 18-24 hrs
[11] = test system: Escherichia coli; experiment: Antibacterial activity against NDM-1 positive Escherichia coli ZC-YN3 isolates assessed as imipenem MIC incubated for 18 to 24 hrs by CLSI based broth microdilution method; type: functional; settings: time 18-24 hrs
[12] = test system: Escherichia coli; experiment: Antibacterial activity against NDM-1 negative Escherichia coli ATCC25922 isolates assessed as meropenem MIC incubated for 18 to 24 hrs by CLSI based broth microdilution method; type: functional; settings: time 18-24 hrs
[13] = test system: Escherichia coli; experiment: Synergistic antibacterial activity against pET28a NDM-1 positive Escherichia coli BL21(DE3) isolates assessed as fractional Inhibitory concentration index incubated for 18 to 24 hrs in presence of ampicillin by CLSI based broth microdilution method; type: functional; settings: time 18-24 hrs
[14] = test system: Escherichia coli; experiment: Synergistic antibacterial activity against pET28a NDM-1 positive Escherichia coli BL21(DE3) isolates assessed as fractional Inhibitory concentration index incubated for 18 to 24 hrs in presence of cefotaxime by CLSI based broth microdilution method; type: functional; settings: time 18-24 hrs
[15] = test system: Escherichia coli; experiment: Synergistic antibacterial activity against pET28a NDM-1 positive Escherichia coli BL21(DE3) isolates assessed as fractional Inhibitory concentration index incubated for 18 to 24 hrs in presence of ciprofloxacin by CLSI based broth microdilution method; type: functional; settings: time 18-24 hrs
[16] = test system: Escherichia coli; experiment: Synergistic antibacterial activity against pET28a NDM-1 positive Escherichia coli BL21(DE3) isolates assessed as fractional Inhibitory concentration index incubated for 18 to 24 hrs in presence of spectinomycin by CLSI based broth microdilution method; type: functional; settings: time 18-24 hrs
[17] = test system: Escherichia coli; experiment: Synergistic antibacterial activity against pET28a NDM-1 positive Escherichia coli BL21(DE3) isolates assessed as fractional Inhibitory concentration index incubated for 18 to 24 hrs in presence of imipenem by CLSI based broth microdilution method; type: functional; settings: time 18-24 hrs
[18] = test system: Escherichia coli; experiment: Synergistic antibacterial activity against pET28a NDM-1 positive Escherichia coli BL21(DE3) isolates assessed as fractional Inhibitory concentration index incubated for 18 to 24 hrs in presence of doxycycline by CLSI based broth microdilution method; type: functional; settings: time 18-24 hrs
[19] = test system: Escherichia coli; experiment: Synergistic antibacterial activity against NDM-1 positive Escherichia coli ZC-YN3 isolates assessed as fractional Inhibitory concentration index incubated for 18 to 24 hrs in presence of meropenem by CLSI based broth microdilution method; type: functional; settings: time 18-24 hrs
[20] = test system: Escherichia coli; experiment: Synergistic antibacterial activity against NDM-1 positive Escherichia coli ZC-YN3 isolates assessed as fractional Inhibitory concentration index incubated for 18 to 24 hrs in presence of ampicillin by CLSI based broth microdilution method; type: functional; settings: time 18-24 hrs
[21] = test system: Escherichia coli; experiment: Synergistic antibacterial activity against NDM-1 positive Escherichia coli ZC-YN3 isolates assessed as fractional Inhibitory concentration index incubated for 18 to 24 hrs in presence of kanamycin by CLSI based broth microdilution method; type: functional; settings: time 18-24 hrs
[22] = test system: Escherichia coli; experiment: Synergistic antibacterial activity against NDM-1 positive Escherichia coli ZC-YN3 isolates assessed as fractional Inhibitory concentration index incubated for 18 to 24 hrs in presence of florfenicol by CLSI based broth microdilution method; type: functional; settings: time 18-24 hrs
[23] = test system: Escherichia coli; experiment: Synergistic antibacterial activity against NDM-1 positive Escherichia coli ZC-YN3 isolates assessed as fractional Inhibitory concentration index incubated for 18 to 24 hrs in presence of vancomycin by CLSI based broth microdilution method; type: functional; settings: time 18-24 hrs
[24] = test system: Escherichia coli; experiment: Synergistic antibacterial activity against NDM-1 positive Escherichia coli ZC-YN3 isolates assessed as fractional Inhibitory concentration index incubated for 18 to 24 hrs in presence of cefotaxime by CLSI based broth microdilution method; type: functional; settings: time 18-24 hrs
[25] = test system: Escherichia coli; experiment: Synergistic antibacterial activity against NDM-1 positive Escherichia coli ZC-YN3 isolates assessed as fractional Inhibitory concentration index incubated for 18 to 24 hrs in presence of rifampicin by CLSI based broth microdilution method; type: functional; settings: time 18-24 hrs
[26] = Inhibition of class A […]beta-lactamase KPC-2 (unknown origin) using nitrocefin as substrate preincubated for 15 min followed by substrate addition and measured after 15 min by microplate reader assay; parameters: species or system Bacteria
[27] = Inhibition of metallo-beta-lactamase IMP-1 (unknown origin) using nitrocefin as substrate preincubated for 15 min followed by substrate addition and measured after 15 min by microplate reader assay; parameters: species or system Bacteria
[28] = test system: Escherichia coli; experiment: Bactericidal activity against pET28a-NDM-1 producing Escherichia coli BL21(DE3) at 32 ug/ml measured within 3 hrs in presence of meropenem by time kill curve assay; type: functional, organism-based; settings: dose 32.0 µg/ml
[29] = test system: Mus musculus; experiment: Synergistic antibacterial activity in BALB/c mouse infected with NDM-1 positive Escherichia coli ZJ487 assessed as increase in survival rate at 50 mg/kg, sc administered every 12 hrs and measured after 96 hrs post infection in presence of meropenem; type: functional
[30] = test system: Bacteria; experiment: Binding affinity to NDM-1 M248A mutant (unknown origin) assessed as binding free energy by fluorescence quenching method
[31] = test system: Bacteria; experiment: Inhibition of NDM-1 V73A mutant activity (unknown origin) in presence of zinc ion
[32] = test system: Bacteria
Description: Binding affinity to NDM-1 (unknown origin) assessed as binding constant by fluorescence quenching method

[33] = test system: Bacteria; remark: listed apart in the source
Description: Binding affinity to NDM-1 V73A mutant (unknown origin) assessed as binding constant by fluorescence quenching method

[34] = test system: Bacteria; remark: listed apart in the source
Description: Binding affinity to NDM-1 M248A mutant (unknown origin) assessed as binding constant by fluorescence quenching method

[35] = test system: Bacteria; remark: listed apart in the source
Description: Binding affinity to NDM-1 H250A mutant (unknown origin) assessed as binding constant by fluorescence quenching method

Question: With `O=c1c(O)c(-c2ccc(O)c(O)c2)oc2cc(O)ccc12` [FISETIN] as the molecule, how does the MIC [1] read?
Answer: 53.3 µg/mL

Question: And the MIC [2]?
Answer: 5.33 µg/mL

Question: And the MIC [3]?
Answer: 512 µg/mL

Question: What about the MIC [4] of the same molecule?
Answer: 512 µg/mL

Question: What about the MIC [5] of the same molecule?
Answer: 42.7 µg/mL

Question: What about the MIC [6] of the same molecule?
Answer: 853 µg/mL

Question: What about the MIC [7] of the same molecule?
Answer: 4 µg/mL

Question: And the MIC [8]?
Answer: 128 µg/mL

Question: What about the MIC [9] of the same molecule?
Answer: 6.67 µg/mL

Question: What about the MIC [10] of the same molecule?
Answer: 1020 µg/mL

Question: What about the MIC [11] of the same molecule?
Answer: 6.67 µg/mL

Question: And the MIC [12]?
Answer: 0.01 µg/mL

Question: What about the “fractional inhibitory concentration index (FICI)” value [13] of the same molecule?
Answer: 0.96

Question: What about the “fractional inhibitory concentration index (FICI)” value [14] of the same molecule?
Answer: 1.13

Question: And the “fractional inhibitory concentration index (FICI)” value [15]?
Answer: 0.96

Question: What about the “fractional inhibitory concentration index (FICI)” value [16] of the same molecule?
Answer: 0.96

Question: What about the “fractional inhibitory concentration index (FICI)” value [17] of the same molecule?
Answer: 0.46

Question: And the “fractional inhibitory concentration index (FICI)” value [18]?
Answer: 0.96

Question: What about the “fractional inhibitory concentration index (FICI)” value [19] of the same molecule?
Answer: 0.31

Question: And the “fractional inhibitory concentration index (FICI)” value [20]?
Answer: 1.13

Question: And the “fractional inhibitory concentration index (FICI)” value [21]?
Answer: 1.13

Question: What about the “fractional inhibitory concentration index (FICI)” value [22] of the same molecule?
Answer: 0.96

Question: And the “fractional inhibitory concentration index (FICI)” value [23]?
Answer: 0.96

Question: And the “fractional inhibitory concentration index (FICI)” value [24]?
Answer: 1.13

Question: And the “fractional inhibitory concentration index (FICI)” value [25]?
Answer: 0.96

Question: What about the IC50 [26] of the same molecule?
Answer: 2.63 µg/mL (≈ 9.19 µM)

Question: What about the IC50 [27] of the same molecule?
Answer: 56.13 µg/mL (≈ 196 µM)

Question: And the Activity [28]?
Answer: Active

Question: What about the Activity [29] of the same molecule?
Answer: 60%

Question: And the Activity [30]?
Answer: -16.2 kcal/mol

Question: What about the inhibition [31] of the same molecule?
Answer: Active

Question: What about the Ka [32] of the same molecule?
Answer: 12.2 10^5L/mol

Question: And the Ka [33]?
Answer: 11.1 10^5L/mol

Question: And the Ka [34]?
Answer: 7.39 10^5L/mol

Question: What about the Ka [35] of the same molecule?
Answer: 6.95 10^5L/mol

From ChEMBL document CHEMBL5131475, “Metallo-β-lactamases inhibitor fisetin attenuates meropenem resistance in NDM-1-producing Escherichia coli” (Eur J Med Chem, 2022)
